Results from patent US20250064904A1 (priority 2019, published 2025).

How the values were obtained:
[1] = tested on: salivary glands; settings: in vivo; cited from earlier work
[2] = tested on: salivary glands (submandibular, parotid); parameters: species or system human; settings: in vivo

Substance: botulinum toxin type A
- onset of action [1]: around six
- uptake of 18F-PSMA in the treated glands [2]: significantly reduced
- uptake of 68Ga-PSMA in the glands treated with botulinum toxin [2]: significantly reduced
- uptake of 177Lu-PSMA in the treated glands [2]: significantly reduced
- uptake of 225Ac-PSMA-617 in the treated glands [2]: significantly reduced
